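Following 48 hours of exposure in 96-well plates, responses at five concentrations were used to interpolate endpoints linearly. GI50 is the concentration that inhibits growth by half.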 Active and inactive are the calls of the source. Cut-off read from the data, not from the text of the source: active = GI50 up to about 1.1 µM and inactive = higher.
How the values were obtained:
Test in all cases: NCI anticancer screen, dose series, 48 h
COLO 205 = system: COLO 205
EKVX = system: EKVX
HCT-116 = system: HCT-116
IGROV-1 = system: IGROV-1
MCF7 = system: MCF7
MDA-N = system: MDA-N
Malme-3M = system: Malme-3M
NCI-H226 = system: NCI-H226
NCI-H460 = system: NCI-H460
OVCAR-5 = system: OVCAR-5
SF-539 = system: SF-539
SK-MEL-28 = system: SK-MEL-28
SK-MEL-5 = system: SK-MEL-5
SN12C = system: SN12C
SW-620 = system: SW-620
T47D = system: T47D
TK-10 = system: TK-10
U-251 = system: U-251
UACC-257 = system: UACC-257
UACC-62 = system: UACC-62

Measured: GI50

COc1ccc2nc(-c3ccccc3)cc(OCC(=O)O)c2c1
inactive: COLO 205 > 100 µM | EKVX > 100 µM | HCT-116 > 100 µM | IGROV-1 > 100 µM | MCF7 > 100 µM | MDA-N > 100 µM | Malme-3M > 100 µM | NCI-H226 > 100 µM | NCI-H460 > 100 µM | OVCAR-5 > 100 µM | SF-539 > 100 µM | SK-MEL-28 > 100 µM | SK-MEL-5 > 100 µM | SN12C > 100 µM | SW-620 > 100 µM | T47D > 100 µM | TK-10 > 100 µM | U-251 > 100 µM | UACC-257 > 100 µM | UACC-62 > 100 µM

CCOC(=O)c1c[nH]c2cc3c(cc2c1=O)CCS3
inactive: COLO 205 > 100 µM | EKVX > 100 µM | HCT-116 37.9 µM | IGROV-1 > 100 µM | MCF7 > 100 µM | MDA-N > 100 µM | Malme-3M > 100 µM | NCI-H226 50.4 µM | NCI-H460 > 100 µM | OVCAR-5 > 100 µM | SF-539 > 100 µM | SK-MEL-28 > 100 µM | SK-MEL-5 > 100 µM | SN12C > 100 µM | SW-620 > 100 µM | T47D > 100 µM | TK-10 > 100 µM | U-251 > 100 µM | UACC-257 > 100 µM | UACC-62 > 100 µM

COc1cc(C2c3cc4c(cc3C(O)C3CCC(=O)N23)OCO4)cc(OC)c1OC (stereo not given)
inactive: COLO 205 37 µM | EKVX > 100 µM | HCT-116 24.3 µM | IGROV-1 39.5 µM | MCF7 16.5 µM | MDA-N 5.56 µM | Malme-3M > 100 µM | NCI-H226 37.5 µM | NCI-H460 39.4 µM | OVCAR-5 43.2 µM | SF-539 > 10 µM | SK-MEL-28 16.8 µM | SK-MEL-5 10.9 µM | SN12C 58.7 µM | SW-620 36.6 µM | T47D > 100 µM | TK-10 69.2 µM | U-251 26.1 µM | UACC-257 > 100 µM | UACC-62 40.8 µM

CCCN(CCc1ccc(-c2ccccc2)cc1)CCc1ccc2nn[nH]c2c1
inactive: COLO 205 2.55 µM | EKVX 13.5 µM | HCT-116 4.66 µM | IGROV-1 10 µM | MCF7 11.6 µM | MDA-N 6.07 µM | Malme-3M 8.79 µM | NCI-H226 15.8 µM | NCI-H460 8.51 µM | OVCAR-5 17.1 µM | SF-539 10.7 µM | SK-MEL-28 4.31 µM | SK-MEL-5 3.91 µM | SN12C 13.6 µM | SW-620 10.7 µM | T47D 4.04 µM | TK-10 11.5 µM | U-251 12.9 µM | UACC-257 4.84 µM | UACC-62 9.23 µM

CCN(CC)/C(SCc1ccccc1)=C(\C(Cl)=C(Cl)Cl)[N+](=O)[O-]
inactive: COLO 205 17.6 µM | EKVX 22.9 µM | HCT-116 14.7 µM | IGROV-1 17.2 µM | MCF7 16.8 µM | MDA-N 16.4 µM | Malme-3M 10.2 µM | NCI-H226 18.9 µM | NCI-H460 22.3 µM | OVCAR-5 17.9 µM | SF-539 19.7 µM | SK-MEL-28 15.9 µM | SK-MEL-5 16.3 µM | SN12C 21.1 µM | SW-620 21.8 µM | T47D 18.9 µM | TK-10 19.2 µM | U-251 22.9 µM | UACC-257 17.5 µM | UACC-62 3.87 µM

COc1ccc(-c2cc(=O)c3c(OC)c(OC)c(OC)c(OC)c3o2)cc1 [TANGERETIN]
inactive: COLO 205 55.7 µM | EKVX 49.1 µM | HCT-116 34 µM | IGROV-1 69 µM | MCF7 > 100 µM | MDA-N 54.7 µM | Malme-3M 84.1 µM | NCI-H226 64.7 µM | NCI-H460 56.2 µM | OVCAR-5 > 100 µM | SF-539 > 100 µM | SK-MEL-28 > 100 µM | SK-MEL-5 27.7 µM | SN12C 65.2 µM | SW-620 67.8 µM | T47D 17 µM | TK-10 58.2 µM | U-251 91 µM | UACC-257 68.4 µM | UACC-62 22.4 µM

Cn1nnc2c(C(N)=O)ncn2c1=O [TEMOZOLOMIDE]
inactive: COLO 205 > 100 µM | EKVX > 100 µM | HCT-116 > 100 µM | IGROV-1 > 100 µM | MCF7 > 100 µM | MDA-N > 100 µM | Malme-3M > 100 µM | NCI-H226 > 100 µM | NCI-H460 > 100 µM | OVCAR-5 > 100 µM | SF-539 > 100 µM | SK-MEL-28 > 100 µM | SK-MEL-5 > 100 µM | SN12C > 100 µM | SW-620 > 100 µM | T47D > 100 µM | TK-10 > 100 µM | U-251 > 100 µM | UACC-257 > 100 µM | UACC-62 > 100 µM
